{"source": "patent US20180110837A1", "about": "“METHODS AND ASSAYS RELATING TO MACROPHAGE DIFFERENTIATION” (THE BRIGHAM AND WOMEN'S HOSPITAL, INC., priority 2012, published 2018)", "key": {"protein kinase A and C": {"test_system": "protein kinase A and C", "settings": "cited from earlier work"}, "ROCK1 [1]": {"biological_target": "T1, ROCK1 (Homo sapiens, UniProt Q13464)", "T1 construct": "recombinant ROCK1 and ROCK2 enzymes containing the truncated catalytic domains (PV3691 and PV3759) were purchased from Invitrogen; purchased Invitrogen PV3691", "T1 sequence (Q13464 76-338 limits assumed)": "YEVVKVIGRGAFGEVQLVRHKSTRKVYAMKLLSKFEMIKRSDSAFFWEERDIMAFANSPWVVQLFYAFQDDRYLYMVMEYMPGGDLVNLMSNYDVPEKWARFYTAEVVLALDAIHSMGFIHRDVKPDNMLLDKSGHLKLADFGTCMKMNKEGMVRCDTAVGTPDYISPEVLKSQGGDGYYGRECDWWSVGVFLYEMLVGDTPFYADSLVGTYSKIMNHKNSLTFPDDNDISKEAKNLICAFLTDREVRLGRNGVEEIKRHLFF", "test": "ROCK1 enzymatic activity, [γ33P]ATP / S6 kinase substrate radiometric assay (FIG. 7A)", "assay_type": "biochemical", "settings": "FIG. 7B; ROCK1 versus ROCK2"}, "HUVEC cells": {"test_system": "HUVEC cells", "test": "cytoskeletal staining (F-actin, paxillin) of HUVEC cells", "assay_type": "cell-based", "settings": "versus vehicle treated controls", "excerpt": "FIG. 11A depicts HUVEC cells stained for the cytoskeletal proteins F-actin and paxillin. […] Scale bar, 20 μm. FIG. 11B depicts Western analysis of HUVECs transfected with siRNA targeting of ROCK1, ROCK2, or both. Negative control, a scramble 20-mer RNA. BlockIt (Invitrogen), a fluorescently labeled RNA to track uptake/transfection efficiency."}, "CNV lesions [2]": {"test_system": "CNV lesions", "test": "laser-induced CNV in mice, lesion size in choroidal flat mounts", "assay_type": "in vivo, mouse", "settings": "for CNV lesions on day 14: treatment from day 1 or from day 7 after laser injury", "excerpt": "(§1) To induce CNV, C57BL/6 mice were anesthetized and pupils were dilated with 5% phenylephrine and 0.8% tropicamide. Using a 532-nm laser (Oculight GLx, Iridex), a slit-lamp delivery system, and a cover glass as a contact lens, four spots (100 mW, 50 μm, 100 ms) were placed in each eye. The lesions were located at 3, 6, 9 and 12 o'clock, meridians centered on the optic nerve head and located 2 to 3 disk diameter from the optic nerve head. The same technique was used to induce CNV in Brown Norway rats (four spots, 150 mW, 100m, 100 ms) 53,54 and cynomolgus monkeys (700 mW, 100m, 100 ms) 29. Development of a bubble under laser radiation confirmed the rupture of the Bruch's membrane. Eyes showing hemorrhage were excluded from experiments.\n(§2) Seven or fourteen days after laser injury, the size of CNV lesions was measured in choroidal flat mounts. Briefly, mice were anesthetized and perfused through the left ventricle with PBS, followed by 5 ml of 5% fluorescein isothiocyanate-dextran (FD2000S; Sigma Aldrich) in 1% gelatin. The anterior segment and retina were removed from the eyecup. The remaining retinal pigment epithelium (RPE)-choroidsclera complex was flat mounted, after relaxing radial incisions, using Mounting Medium (FM 100119, Thermo Scientific) and coverslips. Micrographs of the choroidal complex were taken with a Leica Microscope. The volume of the lesions was quantified, using confocal microscopy (Leica TCS SP2 laser scanning confocal microscope). The magnitude of the CNV lesions was determined by measuring the hyperfluorescent area with Openlab Software (Improvision). The grade of leakage was determined by Fluorescein angiography (FA).\nThe control animals received equivalent amounts of vehicle, glyceryl trioctanoate (91039, Sigma-Aldrich)."}, "[3]": {"test": "electroretinography (ERG) after intravitreal injection", "assay_type": "in vivo, Brown Norway rats", "settings": "rats, intravitreal injections on days 0, 3 and 6", "description": "On day 13, rats were dark-adapted overnight and then anesthetized. Pupils were dilated using 1% tropicamide. Methods for recording dark- and light-adapted ERGs were performed as previously described 55."}, "CNV lesions [4]": {"test_system": "CNV lesions", "test": "laser-induced CNV in cynomolgus monkeys, intravitreal fasudil", "assay_type": "in vivo, cynomolgus monkey", "description": "Eyes from cynomolgus monkeys between 3 and 4 years of age were used in this study. Cynomolgus monkeys were restrained in a squeeze cage and injected intramuscularly in the thigh with 20 mg/kg of ketamine hydrochloride (Sankyo Yell Pharmaceutical Products Co) for general anesthesia.\nParaffin embedded sections of human eyes were deparaffinized and rehydrated with a graded alcohol series. Immunofluorescent staining was performed with antibodies (Abs) against human von Willebrandt factor (F3520, Sigma), human MMR (CD206, MAB2534, R&D Systems), human CD80 (ab53003 Abcam) or human ROCK1 (sc-17794, Santa Cruz Biotechnology) or ROCK2 (sc-1851, Santa Cruz Biotechnology) and identified with Alexa Fluor 488 (10 μg/ml, A-11055; Invitrogen) or 647 (10 μg/ml, A21244; Invitrogen) secondary Abs. On day 3 after laser injury, 10 μm frozen sections of the posterior segment were prepared. The mouse eye sections were incubated with a rat anti-mouse F4/80 mAb (MCA497R, AbD Serotec) or CD11b (550282, BD Pharmingen), and subsequently with the secondary Ab. In monkey eyes, CD68 (goat polyclonal antibody, sc-7082, Santa Cruz), vWF (rabbit polyclonal antibody, A0082, DAKO), ROCK1 (mouse monoclonal antibody, sc-17794, Santa Cruz) and ROCK2 (goat polyclonal antibody, sc-1851, Santa Cruz) were stained. Images were obtained with a Leica microscope.\nTo induce CNV, C57BL/6 mice were anesthetized and pupils were dilated with 5% phenylephrine and 0.8% tropicamide. Using a 532-nm laser (Oculight GLx, Iridex), a slit-lamp delivery system, and a cover glass as a contact lens, four spots (100 mW, 50 μm, 100 ms) were placed in each eye. The lesions were located at 3, 6, 9 and 12 o'clock, meridians centered on the optic nerve head and located 2 to 3 disk diameter from the optic nerve head. […]\nFA was performed in anesthetized Brown Norway rats from ROCK inhibitor or vehicle treated groups, using a digital fundus camera (SLO; HRA2; Heidelberg Engineering), 7 and 14 days after laser injury. […] FA images were evaluated by two masked retina specialists. […]"}, "all tested kinases": {"test_system": "all tested kinases", "settings": "scale of 0 to 1; over 175 inhibitors; cited from earlier work"}, "CNV lesions [5]": {"test_system": "CNV lesions", "test": "laser-induced CNV in rats, intravitreal ROCK inhibition", "assay_type": "in vivo, Brown Norway rats", "excerpt": "as §1\nas §2, with “The remaining retinal pigment epithelium (RPE)-choroidsclera complex was flat mounted, after relaxing radial incisions, using Mounting Medium (FM 100119, Thermo Scientific) and coverslips. Micrographs of the choroidal complex were taken with a Leica Microscope.” left out, “(FA). […]” for “(FA).”"}, "MLCK": {"biological_target": "MLCK", "settings": "read-out: Ki MLCK; cited from earlier work"}, "[6]": {"settings": "in vivo; cited from earlier work"}, "ROCK1 [7]": {"biological_target": "T1, ROCK1", "settings": "at concentrations up to 10 μM; cited from earlier work"}, "[8]": {"test_system": "CD11b/CD206 infiltrating cells in CNV", "test": "FACS analysis of infiltrating cells from CNV eyes", "assay_type": "in vivo, mouse", "description": "To examine macrophages in the retina and choroid, cells were prepared from mouse eyes. To collect a sufficient number of ocular infiltrating cells, 50 burns were delivered to mouse eyes by laser. After laser injury, eyes were enucleated at different time points (1, 2, 3, 5, and 7 days). The anterior segment (cornea, iris, and lens) was excised and the posterior segment of the eye including sclera, choroid, and retina was disrupted with scissors and then shaken in DMEM (plus 10% FBS (Gibco Laboratories), 100 U/ml penicillin, 100 μg/ml streptomycin) supplemented with 0.5 mg/ml Collagenase type D (11 088 874 103, Boehringer Mannheim) at 37° C. for 60 min. The supernatants were collected and passed through a mesh. After 3 washes, viable cells were obtained. A total of 12 eyes (6 individual pools) were examined per group. The cells were stained with PE anti-mouse CD11b (557397, BD Pharmingen), FITC antimouse CD206 (MMR, 123005; BioLegend) and PE-Cy5 anti-mouse CD80 Abs (15-0801-81, eBioscience). RAW 264.7 cells were stained with PerCP anti-mouse CD11b (101230, BioLegend), PerCP anti-mouse F4/80 (123006, BioLegend), PE anti-mouse CD80 (12-0801, eBioscience), FITC anti-mouse CD206 (141704, BioLegend). […] The control animals received equivalent amounts of vehicle, glyceryl trioctanoate (91039, Sigma-Aldrich)."}, "[9]": {"test_system": "vascular leakage of CNV lesions", "test": "leakage from angiogenic vessels by fluorescein angiography after laser injury", "assay_type": "in vivo, mice", "description": "FA was performed in anesthetized Brown Norway rats from ROCK inhibitor or vehicle treated groups, using a digital fundus camera (SLO; HRA2; Heidelberg Engineering), 7 and 14 days after laser injury. Fluorescein injections were performed intravenously (0.2 ml of 2% fluorescein; Akorn, NDC 17478-253-10). Monkeys were injected with 5% fluorescein intravenously (Fluorescite, Alcon). FA images were evaluated by two masked retina specialists. The grading criteria were as follows: Grade-0, no hyperfluorescence; Grade-I, hyperfluorescence without leakage; Grade-IIA, hyperfluorescence in the early or mid-transit images and late leakage; Grade-IIB, bright hyperfluorescence in the transit images and late leakage beyond the treated areas. The Grade-IIB lesions were considered as clinically significant, as described previously 53. […] The control animals received equivalent amounts of vehicle, glyceryl trioctanoate (91039, Sigma-Aldrich)."}, "[10]": {"settings": "systemic treatment after laser injury"}, "[11]": {"settings": "monkeys, intravitreal injections"}, "[12]": {"settings": "IL-4, IL-10 and IL-13 injected eyes, in addition ROCK2 inhibitor treated"}, "[13]": {"settings": "M1-cytokine cocktail injected eyes, in addition ROCK2 inhibitor treated"}}, "note": "“Also recorded” adds a separate entry of the source.", "data": [{"smiles": "C[C@@H](N)[C@H]1CC[C@H](C(=O)Nc2ccncc2)CC1", "note": "[Y-27632, (R)-(+)-trans-N-(4-pyridyl)-4-(1-aminoethyl)-cyclohexanecarboxamide]", "values": [{"measurement": "effect on protein kinase A and C", "setting": "protein kinase A and C", "result": "affect"}, {"measurement": "inhibitory activities against ROCK1 and ROCK2 compared", "setting": "ROCK1 [1]", "result": "equipotent"}, {"measurement": "paxillin distribution", "setting": "HUVEC cells", "result": "concentrated in the nuclear or immediate perinuclear regions"}]}, {"smiles": "Cl.O=S(=O)(c1cccc2cnccc12)N1CCCNCC1", "note": "[fasudil, 5-(1,4-diazepan-1-ylsulfonyl)isoquinoline hydrochloride]", "values": [{"measurement": "reduction of CNV lesions compared to control", "setting": "CNV lesions [2]; pan ROCK inhibition, rodents", "result": "~60", "unit": "%"}, {"measurement": "CNV size", "setting": "CNV lesions [2]; [10]", "result": "significantly smaller"}, {"measurement": "CNV lesions on day 14", "setting": "CNV lesions [2]", "result": "CNV reduction"}, {"measurement": "changes in the electroretinogram (ERG)", "setting": "[3]", "result": "does not cause functional ERG changes"}, {"measurement": "macrophage infiltration into CNV lesions", "setting": "CNV lesions [4]; monkey eyes, intravitreal injection", "result": "significantly reduced"}, {"measurement": "CNV membrane thickness", "setting": "CNV lesions [4]; [11]", "result": "significantly reduced"}, {"measurement": "percentage of the clinically relevant 2B leakages", "setting": "CNV lesions [4]; [11]", "result": "significantly reduced"}, {"measurement": "effect on protein kinase A and C", "setting": "protein kinase A and C", "result": "affect"}, {"measurement": "gini score", "setting": "all tested kinases", "result": 0.63}, {"measurement": "CNV size (day 7)", "setting": "CNV lesions [5]", "result": "reduces CNV"}, {"measurement": "inhibitory activities against ROCK1 and ROCK2 compared", "setting": "ROCK1 [1]", "result": "equipotent"}, {"measurement": "paxillin distribution", "setting": "HUVEC cells", "result": "concentrated in the nuclear or immediate perinuclear regions"}, {"measurement": "Ki", "setting": "MLCK", "result": 36, "unit": "µM"}]}, {"smiles": "CC(C)NC(=O)COc1cccc(-c2nc(Nc3ccc4[nH]ncc4c3)c3ccccc3n2)c1", "note": "[SLx-2119]", "values": [{"measurement": "CNV size", "setting": "CNV lesions [2]; [12]", "result": "reduced to control levels"}, {"measurement": "CNV", "setting": "CNV lesions [2]; [13]", "result": "remained unaffected"}, {"measurement": "CNV size in adiponectin−/− mice", "setting": "CNV lesions [2]; adiponectin−/− mice", "result": "lack of function"}, {"measurement": "dose at which maximum efficacy was reached", "setting": "CNV lesions [2]; intraperitoneal", "result": 10, "unit": "mg/kg"}, {"measurement": "reduction of CNV", "setting": "CNV lesions [2]; intraperitoneal, dose of 1 mg/kg", "result": 66, "unit": "%"}, {"measurement": "CNV size", "setting": "CNV lesions [2]; [10]", "result": "significantly decreased"}, {"measurement": "CNV size", "setting": "CNV lesions [2]; systemic treatment after laser injury, listed as selective ROCK2 inhibitor", "result": "significantly reduced"}, {"measurement": "CNV lesions on day 14", "setting": "CNV lesions [2]; listed as ROCK2 inhibitor", "result": "reduced; also recorded: CNV reduction"}, {"measurement": "changes in the electroretinogram (ERG)", "setting": "[3]", "result": "does not cause functional ERG changes"}, {"measurement": "phase I clinical (toxicity) trial", "setting": "[6]", "result": "successfully completed"}, {"measurement": "ROCK1 enzymatic activity", "setting": "ROCK1 [7]", "result": "did not affect"}, {"measurement": "MaDAMs", "setting": "[8]", "result": "significantly decreased"}, {"measurement": "CNV size (day 7)", "setting": "CNV lesions [5]", "result": "reduces CNV"}, {"measurement": "percentage of clinically relevant 2B leakage", "setting": "[9]; [12]", "result": "reduced to control levels"}, {"measurement": "leakage", "setting": "[9]; [13]", "result": "remained unaffected"}, {"measurement": "leakage / percentage of the clinically relevant 2B leakages", "setting": "[9]; fluorescein angiography", "result": "significantly decreased"}, {"measurement": "paxillin distribution", "setting": "HUVEC cells", "result": "comparable to the control cells"}]}]}
